According to patent US20110008466A1, “METHODS AND COMPOSITIONS FOR ALTERING CELL FUNCTION” (ALLTECH, INC., priority 2006, published 2011):

Assays:
[1] = tested on: cyclin-dependent kinase 5 (Cdk-5); assay: Microarray gene expression, tau kinases, brain; format: in vivo, mice; settings: vs non-selenium supplemented diet, minus = down, * significant
Text: (§1) Animal Care. Male C57BL/6J mice were housed singly and started on the experimental diets described below immediately after weaning (21 days of age). The mice were maintained in the Shared Aging Rodent Facility at the William S. Middleton Memorial Veterans Administration Medical Center (Madison, Wis.). Temperature and humidity were maintained at constant levels. Room light was controlled to provide 12-hr cycles of light and dark.
(§2) Experimental diets were created by Harlan Teklad (Madison, Wis.). Selenium content of the diets was determined by Covance Inc. (Madison, Wis.). Five (5) animals were included in each of the following treatment groups: a diet deficient in selenium (SD); a diet supplemented with selenomethionine (SM, obtained from Sigma, St. Louis, Mo.) such that the final selenium content of the diet was one (1) part per million; a diet supplemented with sodium selenite (SS, Sigma) such that the final concentration of selenium in this diet was one (1) part per million; or a diet supplemented with the yeast selenium SEL-PLEX (SP, Alltech, Lexington, Ky.), such that the final concentration of selenium in this diet was one (1) part per million. SEL-PLEX. Mice were provided with water and their respective diet ad libitum for 100 days. Diets were stored at the dark at 4° C. and fresh diet was added to feeder twice weekly.
(§3) Tissue sample preparation and microarray analysis. Mice were killed at 100 days of age by cervical dislocation. For intestinal expression studies, the intestine was flushed twice with saline solution and small intestine was measured and divided in three equal segments. A 3-cm region of the middle segment of the small intestine corresponding to the jejunum (˜300 mg of tissue) was cut and rinsed again with physiological saline to completely remove contents, flash frozen in liquid nitrogen and stored at −80° C. For brain (e.g., cerebral cortex) studies, the cerebral cortex was separated from the surrounding brain tissue and was flash frozen in liquid nitrogen and stored at −80° C.
(§4) Total RNA was isolated from using the guanidinium isothiocyanate method of TRIZOL (Life Technologies, Grand Island, N.Y.) and individual samples were used for gene expression profiles. Total RNA was cleaned up by RNeasy Mini kit (Qiagen, Valencia, Calif.). Target RNA was prepared by converting […] total RNA into double-strand cDNA using GeneChip Expression 3′-Amplification Reagents One-Cycle cDNA Synthesis Kit (Affymetrix, Santa Clara, Calif.) with a T7-(dT)24 primer incorporating a T7 RNA polymerase promoter. […]

[2] = tested on: glycogen synthase kinase-3-beta (GSK-3β); assay: Microarray gene expression, tau kinases, brain; format: in vivo, mice; settings: vs non-selenium supplemented diet, minus = down, * significant
Text: as §1, §2, §3, §4

Gadd45b [3] = assay: Gene expression, liver tissue; format: in vivo, mice; settings: vs Se-deficient, minus = down
Text: as §1
as §2, with “Diets were stored at the dark at 4° C. and fresh diet was added to feeder twice weekly.” left out
(§5) • 1. […] Additionally, a “signal intensity score” was calculated for each probe set as the sum of the signal intensities for all chips (N=20). • 2. […]

GST genes = assay: Microarray gene expression, mouse intestine (summary of Table 3); format: in vivo, mice; settings: vs Se-deficient diet
Text: as §1
as §2, with “Mice were provided with water and their respective diet ad libitum for 100 days. Diets were stored at the dark at 4° C. and fresh diet was added to feeder twice weekly.” left out
(§6) Tissue sample preparation and microarray analysis. […] For intestinal expression studies, the intestine was flushed twice with saline solution and small intestine was measured and divided in three equal segments. […]

[4] = tested on: complement component genes; assay: Microarray gene expression, mouse cerebral cortex (summary of Table 6); format: in vivo, mice; settings: p<0.01
Text: as §1
as §2, with “Mice were provided with water and their respective diet ad libitum for 100 days. Diets were stored at the dark at 4° C. and fresh diet was added to feeder twice weekly.” left out
as §6

Gadd45b [5] = assay: Microarray gene expression, mouse cerebral cortex; format: in vivo, mice; settings: minus = down; for Fold change Gadd45b gene expression, ctx (Table 14): cortex tissue, vs Se-deficient
Text: as §1, §2, §3
(§7) Total RNA was isolated from using the guanidinium isothiocyanate method of TRIZOL (Life Technologies, Grand Island, N.Y.) and individual samples were used for gene expression profiles. Total RNA was cleaned up by RNeasy Mini kit (Qiagen, Valencia, Calif.). Target RNA was prepared by converting […] total RNA into double-strand cDNA using GeneChip Expression 3′-Amplification Reagents One-Cycle cDNA Synthesis Kit (Affymetrix, Santa Clara, Calif.) with a T7-(dT)24 primer incorporating a T7 RNA polymerase promoter. After cleaning up double-strand cDNA using Genechip Sample Cleanup Module (Affymetrix, Santa Clara, Calif.), biotin-labeled cRNA was synthesized from double-strand cDNA using GeneChip Expression 3′-Amplification Reagents for IVT Labeling (Affymetrix, Santa Clara, Calif.). The biotin-labeled cRNA was cleaned up using Genechip Sample Cleanup Module and was fragmented by heating (35 min at 94° C.).
(§8) Fifteen (15) μg of cRNA fragments were hybridized (16 h at 45° C.) to Mouse Genome 430 2.0 Array (Affymetrix, Santa Clara, Calif.) using GeneChip Hybridization Oven 640. After hybridization, the gene chips were automatically washed and stained with streptavidin-phycoerythrin biotinylated anti-streptavidin using Affymetrix GeneChip Fluidics Station 450. The DNA chips were scanned with Affymetrix GeneChip Scanner 3000 (Affymetrix, Santa Clara, Calif.) to detect the cell signal intensities by laser. All calculations were performed with Affymetrix GeneChip Operating Software (GCOS) version 1.3 after scanning
(§9) • 1. The spreadsheet containing probe set identifiers and signal intensity values was opened in Microsoft Excel (version 11.1.1 for the Macintosh OS-X operating system) and summary statistics were generated (mean signal intensity for each treatment group, standard error of the mean). Two-tailed t-tests (equal variance) were performed for the following treatment groups: SM vs. SD, SS vs. SD, and SP vs. SD. […]

CORS-26 = assay: Microarray gene expression, mouse cerebral cortex; format: in vivo, mice; settings: Example 10 (brain); vs Se-deficient diet
Text: as §1, §2, §3, §7, §8, §9

SelR (Selenoprotein X1) = assay: Microarray gene expression, mouse intestine; format: in vivo, mice; settings: 1 ppm Se diet 100 days vs Se-deficient diet
Text: as §1, §2, §3, §7, §8, §9

[6] = tested on: type II iodothyronine deiodinase (Dio2); assay: Microarray gene expression, mouse intestine; format: in vivo, mice; settings: 1 ppm Se diet 100 days vs Se-deficient diet
Text: as §1, §2, §3, §7, §8, §9

Gadd45g1p = assay: Microarray gene expression, mouse intestine; format: in vivo, mice; settings: p<0.05
Text: as §1, §2, §3, §7, §8, §9

[7] = tested on: Growth arrest and DNA-damage-inducible 45 gamma (Gadd45g); assay: Microarray gene expression, mouse intestine; format: in vivo, mice; settings: vs Se-deficient diet, minus = down
Text: as §1, §2, §3, §7, §8, §9

Prohibitin (Phb) = assay: Microarray gene expression, mouse intestine; format: in vivo, mice; settings: vs Se-deficient diet, p<0.05
Text: as §1, §2, §3, §7, §8, §9

Neurogenin 3 (Neurog3) = assay: Microarray gene expression, mouse intestine; format: in vivo, mice; settings: vs Se-deficient diet
Text: as §1, §2, §3, §7, §8, §9

[8] = tested on: LIM homeobox protein 8 gene (Lhx8); assay: Microarray gene expression, mouse intestine; format: in vivo, mice; settings: vs Se-deficient subjects, p<0.01
Text: as §1, §2, §3, §7, §8, §9

[9] = tested on: Type 1 iodothyronine deiodinase; assay: Microarray gene expression, mouse intestine; format: in vivo, mice; settings: 1 ppm Se diet 100 days vs Se-deficient diet
Text: as §1, §2, §3, §7, §8, §9

Selenoprotein W (SelW) = assay: Microarray gene expression, mouse intestine; format: in vivo, mice; settings: 1 ppm Se diet 100 days vs Se-deficient diet
Text: as §1, §2, §3, §7, §8, §9

[10] = tested on: transforming growth factor beta 2 (TGF-β2); assay: Microarray gene expression, mouse intestine; format: in vivo, mice; settings: vs controls
Text: as §1, §2, §3, §7, §8, §9

Glyoxalase 1 (Glo1) = assay: Microarray gene expression, mouse intestine; format: in vivo, mice; settings: 1 ppm Se diet 100 days vs Se-deficient diet, p<0.01
Text: as §1, §2, §3, §7, §8, §9

selenoprotein N1 (Sepn1) = assay: Microarray gene expression, mouse intestine; format: in vivo, mice; settings: 1 ppm Se diet 100 days vs Se-deficient diet, p<0.02
Text: as §1, §2, §3, §7, §8, §9

[11] = tested on: sprouty homolog 2 gene (Spry2); assay: Microarray gene expression, mouse intestine; format: in vivo, mice; settings: relative to Se-deficient controls
Text: as §1, §2, §3, §7, §8, §9

[12] = tested on: Growth arrest and DNA-damage-inducible 45 beta (Gadd45b); assay: Microarray gene expression, mouse intestine; format: in vivo, mice; settings: intestinal tissue; vs Se-deficient; minus = down
Text: as §1, §2, §3, §7, §8, §9

Gadd45b [13] = assay: Gene expression, skeletal muscle tissue; format: in vivo, mice; settings: vs Se-deficient, minus = down
Text: as §1
as §2, with “Diets were stored at the dark at 4° C. and fresh diet was added to feeder twice weekly.” left out
as §5

[14] = tested on: Gadd45g1p (Growth arrest and DNA-damage inducible 45 gamma interacting protein); assay: Microarray gene expression, mouse cerebral cortex; format: in vivo, mice; settings: brain; minus = down; * significant relative to Se-deficient animals
Text: as §1, §2, §3, §7, §8, §9

[15] = tested on: Complement component 1, q subcomponent, beta polypeptide, C1qbp; assay: Microarray gene expression, mouse cerebral cortex; format: in vivo, mice; settings: vs Se-deficient diet, minus = down, * = significant p<0.01
Text: as §1, §2, §3, §7, §8, §9

[16] = tested on: Complement component 1, q subcomponent binding protein, C1qbp; assay: Microarray gene expression, mouse cerebral cortex; format: in vivo, mice; settings: vs Se-deficient diet, minus = down, * = significant p<0.01
Text: as §1, §2, §3, §7, §8, §9

calpain-5 = assay: Expression level of calpain genes after selenium administration; format: in vivo; settings: tissue not stated; minus = down; asterisk not explained
Description: Compositions and methods of the present invention were analyzed to determine if they were capable of altering the expression levels of calpain genes. Compositions comprising various forms of selenium (e.g., SeM, Sod-sel, and SEL-PLEX) were administered to subjects and the expression levels of calpain genes monitored. The expression level of calpain-5 was altered by treatment in the following ways: free selenomethionine (SM)+1.32*, Sod-sel −1.07, SEL-PLEX −1.44*.

Thioredoxin Reductase 1 = assay: Microarray gene expression, mouse intestine; format: in vivo, mice; settings: 1 ppm Se diet 100 days vs Se-deficient diet, all p <0.01
Text: as §1, §2, §3, §7, §8, §9

SOD1 = assay: Microarray gene expression, mouse intestine; format: in vivo, mice; settings: 1 ppm Se diet 100 days vs Se-deficient diet
Text: as §1, §2, §3, §7, §8, §9

[17] = tested on: Cu chaperone for SOD (CCS); assay: Microarray gene expression, mouse intestine; format: in vivo, mice; settings: 1 ppm Se diet 100 days vs Se-deficient diet
Text: as §1, §2, §3, §7, §8, §9

Structure (SMILES): C[Se]CC[C@H](N)C(=O)O [SeM, selenomethionine]
- FC CdK5 gene expression ([1]; listed as SM): −1.00 fold
- FC GsKβ3 (GSK-3β) gene expression ([2]; listed as SM): −1.10 fold
- Fold change Gadd45b gene expression, liv (Table 14) (Gadd45b [3]): 1.24 fold
- alteration of expression pattern of GST genes (summary in words) (GST genes): no alteration
- down-regulation of complement component genes (summary in words) [4]: did not provide a statistically significant alteration
- Fold change Gadd45b gene expression, ctx (Table 14) (Gadd45b [5]; listed as Selenomethionine): −1.26 fold
- Fold change Gadd45b gene expression, ctx (Table 14) (Gadd45b [5]; listed as selenomethionine): significant reduction
- fold reduction in expression of CORS-26 (CORS-26): no alteration
- fold upregulation of SelR gene (SelR (Selenoprotein X1)): not significantly affected
- fold down-regulation of Dio2 expression [6]: no ability to alter
- expression of Gadd45g1p in intestinal tissue (Gadd45g1p): decreased expression
- FC Gadd45g expression (Table 2) [7]: −1.5 (p < 0.05) fold
- fold upregulation of Prohibitin (Phb) expression (Prohibitin (Phb)): 1.6 fold
- fold upregulation of Neurog3 expression (Neurogenin 3 (Neurog3)): no significant alteration
- fold upregulation of Lhx8 expression [8]: not significantly different
- fold increase in expression of Type 1 iodothyronine deiodinase [9]: 2.0 fold
- fold upregulation of Selenoprotein W (SelW) expression (Selenoprotein W (SelW)): not significantly altered
- fold upregulation of TGF-β2 expression [10]: not altered
- fold reduction of Glo1 expression (Glyoxalase 1 (Glo1)): not significantly affected
- fold increase of selenoprotein N1 (Sepn1) gene expression (selenoprotein N1 (Sepn1)): not significantly affected
- fold reduction in Spry2 gene expression [11]: no alteration
- Fold change Gadd45b gene expression, int (Table 14) [12]: −1.07 fold
- Fold change Gadd45b gene expression, skm (Table 14) (Gadd45b [13]): 1.02 fold

Structure (SMILES): O=[Se](O)O [Sod-sel, sodium selenite]
- FC CdK5 gene expression ([1]; listed as SS): −1.13 fold
- FC GsKβ3 (GSK-3β) gene expression ([2]; listed as SS): −1.63* fold
- Fold change Gadd45b gene expression, liv (Table 14) (Gadd45b [3]): 1.25 fold
- FC Gadd45g1p expression (Table 11) [14]: −1.12 fold
- FC C1q beta polypeptide (printed C1qbp) expression [15]: −1.35 fold
- FC Gadd45b expression (Table 11) (Gadd45b [5]; brain, * significant relative to Se-deficient animals): −1.39* fold
- Fold change Gadd45b gene expression, ctx (Table 14) (Gadd45b [5]): −1.33 fold
- FC C1qbp (C1q binding protein) expression [16]: 1.11 fold
- expression level of calpain-5 altered by treatment (calpain-5): −1.07
- fold upregulation of SelR gene (SelR (Selenoprotein X1)): 1.3 fold
- FC Gadd45g expression (Table 2) [7]: −2.0 (p < 0.01) fold
- fold increase in expression of the Thioredoxin Reductase 1 gene (Thioredoxin Reductase 1): 1.7 fold
- fold enhanced expression of SOD1 (SOD1): 1.92 fold
- fold enhancement in expression of Cu chaperone for SOD (CCS) [17]: 1.28 fold
- fold increase in expression of Type 1 iodothyronine deiodinase [9]: 2.8 fold
- fold upregulation of Selenoprotein W (SelW) expression (Selenoprotein W (SelW)): 5.1 fold
- Fold change Gadd45b gene expression, int (Table 14) [12]: 1.08 fold
- Fold change Gadd45b gene expression, skm (Table 14) (Gadd45b [13]): −2.42 fold
